Several values for one entry are separate records, joined by “and”; a condition that tells them apart may be missing. Equal values may be shown once. Inconclusive results and toxic doses are left out. How the source made its calls: active means survival T/C of 150% or more; inactive means T/C below 125% in these data.
System: CD2F1 mice, L1210 leukemia ip, survival T/C
Assay: NCI In Vivo Anticancer Drug Screen. Data for tumor model L1210 Leukemia (intraperitoneal) in CD2F1 (CDF1) mice
Details: endpoint: mean survival time, higher = longer survival
Procedure, shortened: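 Mice carrying a transplanted tumor received test compound or vehicle alone. The value is the measurement in the treated group divided by that in the vehicle-treated control group.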

[1] = dose: 100.0 mg/kg/injection, schedule: Q04DX003 (ip), vehicle: saline with Tween-80
[2] = dose: 200.0 mg/kg/injection, schedule: Q04DX003 (ip), vehicle: saline with Tween-80
[3] = dose: 400.0 mg/kg/injection, schedule: Q04DX003 (ip), vehicle: saline with Tween-80
[4] = dose: 100.0 mg/kg/injection, schedule: Q01DX009 (ip), vehicle: saline with Tween-80
[5] = dose: 200.0 mg/kg/injection, schedule: Q01DX009 (ip), vehicle: saline with Tween-80

Measured: T/C

O=Nc1sc2ccccc2c1O
inactive: [1] 104 % of control | [2] 96 % of control | [3] 96 % of control

CCc1cc(O)cc(C)c1Cl
inactive: [4] 96 % of control | [1] 92 % of control | [5] 92 % of control | [2] 92 % of control | [3] 100 % of control

C[N+](C)(C)Cc1ccccc1/C(=N\O)c1ccccc1
inactive: dose: 5.0 mg/kg/injection, schedule: Q01DX009 (ip), vehicle: saline 109 % of control | dose: 5.0 mg/kg/injection, schedule: Q04DX003 (ip), vehicle: saline 116 % of control | dose: 10.0 mg/kg/injection, schedule: Q01DX009 (ip), vehicle: saline 100 % of control | dose: 10.0 mg/kg/injection, schedule: Q04DX003 (ip), vehicle: saline 98 % of control | dose: 20.0 mg/kg/injection, schedule: Q01DX009 (ip), vehicle: saline 91 % of control | dose: 20.0 mg/kg/injection, schedule: Q04DX003 (ip), vehicle: saline 89 % of control

C/C=C\C[P+](c1ccccc1)(c1ccccc1)c1ccccc1
inactive: dose: 5.0 mg/kg/injection, schedule: Q01DX001 (ip), vehicle: saline with Tween-80 101 % of control | dose: 5.0 mg/kg/injection, schedule: Q01DX009 (ip), vehicle: saline with Tween-80 102 % of control | dose: 10.0 mg/kg/injection, schedule: Q01DX001 (ip), vehicle: saline with Tween-80 104 % of control | dose: 10.0 mg/kg/injection, schedule: Q01DX009 (ip), vehicle: saline with Tween-80 102 % of control | dose: 20.0 mg/kg/injection, schedule: Q01DX001 (ip), vehicle: saline with Tween-80 104 % of control | dose: 20.0 mg/kg/injection, schedule: Q01DX009 (ip), vehicle: saline with Tween-80 122 % of control

CCCCc1ccc(-n2c(C)c(COC(=O)NC)c(COC(=O)NC)c2C)cc1
inactive: dose: 1.56 mg/kg/injection, schedule: Q01DX009 (ip), vehicle: Klucel (hydroxypropylcellulose) (HPC) 113 % of control and 112 % of control | dose: 3.12 mg/kg/injection, schedule: Q01DX009 (ip), vehicle: Klucel (hydroxypropylcellulose) (HPC) 117 % of control and 110 % of control | dose: 6.25 mg/kg/injection, schedule: Q01DX009 (ip), vehicle: Klucel (hydroxypropylcellulose) (HPC) 117 % of control and 110 % of control | dose: 12.5 mg/kg/injection, schedule: Q01DX009 (ip), vehicle: Klucel (hydroxypropylcellulose) (HPC) 124 % of control and 103 % of control | dose: 25.0 mg/kg/injection, schedule: Q01DX009 (ip), vehicle: Klucel (hydroxypropylcellulose) (HPC) 120 % of control | dose: 50.0 mg/kg/injection, schedule: Q01DX009 (ip), vehicle: Klucel (hydroxypropylcellulose) (HPC) 122 % of control and 109 % of control

O=NN(CCCCCSCCCl)C(=O)NC1CCCCC1
inactive: dose: 6.25 mg/kg/injection, schedule: Q01DX001 (ip), vehicle: distilled water + Tween-80 101 % of control | dose: 12.5 mg/kg/injection, schedule: Q01DX001 (ip), vehicle: distilled water + Tween-80 101 % of control | dose: 25.0 mg/kg/injection, schedule: Q01DX001 (ip), vehicle: distilled water + Tween-80 107 % of control | dose: 50.0 mg/kg/injection, schedule: Q01DX001 (ip), vehicle: distilled water + Tween-80 104 % of control | dose: 100.0 mg/kg/injection, schedule: Q01DX001 (ip), vehicle: distilled water + Tween-80 104 % of control | dose: 200.0 mg/kg/injection, schedule: Q01DX001 (ip), vehicle: distilled water + Tween-80 108 % of control | dose: 400.0 mg/kg/injection, schedule: Q01DX001 (ip), vehicle: distilled water + Tween-80 118 % of control

CCCCN(C)N=Nc1ccc(C(N)=O)cc1
inactive: dose: 18.75 mg/kg/injection, schedule: Q01DX009 (ip), vehicle: Klucel (hydroxypropylcellulose) (HPC) 107 % of control | dose: 37.5 mg/kg/injection, schedule: Q01DX009 (ip), vehicle: Klucel (hydroxypropylcellulose) (HPC) 113 % of control | dose: 75.0 mg/kg/injection, schedule: Q01DX009 (ip), vehicle: Klucel (hydroxypropylcellulose) (HPC) 121 % of control | dose: 150.0 mg/kg/injection, schedule: Q01DX009 (ip), vehicle: Klucel (hydroxypropylcellulose) (HPC) 106 % of control

CC(C)=CCC/C(C)=C\COC(=N)C(Cl)(Cl)Cl
inactive: dose: 50.0 mg/kg/injection, schedule: Q01DX009 (ip), vehicle: saline with Tween-80 88 % of control | [4] 92 % of control | [5] 92 % of control

Nc1ncnc2cc3c(cc12)ncn3C1OC(CO)C(O)C1O (stereo not given)
inactive: dose: 12.5 mg/kg/injection, schedule: Q01DX005 (ip), vehicle: water 92 % of control | dose: 25.0 mg/kg/injection, schedule: Q01DX005 (ip), vehicle: water 104 % of control | dose: 50.0 mg/kg/injection, schedule: Q01DX005 (ip), vehicle: water 104 % of control | dose: 100.0 mg/kg/injection, schedule: Q01DX005 (ip), vehicle: water 112 % of control | dose: 200.0 mg/kg/injection, schedule: Q01DX005 (ip), vehicle: water 110 % of control

COC1OCC(N=[N+]=[N-])C(OS(C)(=O)=O)C1OS(C)(=O)=O (stereo not given)
inactive: dose: 100.0 mg/kg/injection, schedule: Q01DX001 (ip), vehicle: saline with Tween-80 95 % of control | [4] 101 % of control | dose: 200.0 mg/kg/injection, schedule: Q01DX001 (ip), vehicle: saline with Tween-80 98 % of control and 94 % of control | dose: 400.0 mg/kg/injection, schedule: Q01DX001 (ip), vehicle: saline with Tween-80 94 % of control and 101 % of control | dose: 400.0 mg/kg/injection, schedule: Q01DX009 (ip), vehicle: saline with Tween-80 97 % of control

O=P1(OCCCCCl)NCCCO1 (stereo not given)
inactive: dose: 62.5 mg/kg/injection, schedule: Q01DX001 (ip), vehicle: water 103 % of control | dose: 125.0 mg/kg/injection, schedule: Q01DX001 (ip), vehicle: water 104 % of control | dose: 250.0 mg/kg/injection, schedule: Q01DX001 (ip), vehicle: water 103 % of control | dose: 500.0 mg/kg/injection, schedule: Q01DX001 (ip), vehicle: water 108 % of control | dose: 750.0 mg/kg/injection, schedule: Q01DX001 (ip), vehicle: water 101 % of control

Source: PubChem BioAssay AID256 (DTP/NCI, 2004)
